Here are results for two molecules from article PMC12799421, “Inhibition of constitutive activity of the atypical chemokine receptor 3 by the small-molecule inverse agonist VUF16840” (Molecular Pharmacology, 2025).

In assay [1] the target is T1, HA-hACKR3 (Homo sapiens, UniProt P25106).
T1 construct: expressed in transfected cells; host or cells: HEK293T (membranes, transient expression)
As to the kind of experiment: [3H]VUF15485 radioligand binding assay. The note with it: 2 nM [3H]VUF15485, HEK293T membranes. On the procedure:
Membranes of HEK293T cells that transiently expressed the NLuc-hACKR3 or HA-hACKR3 were produced as previously described.[23] Briefly, 2 million HEK293T cells were seeded per […] and were transfected the following day using a DNA/PEI-mix containing 0.25 μg plasmid DNA encoding for the ACKR3, 4.75 μg pcDEF3 plasmid DNA and 30 μg linear PEI. Two days after transfection, cells were collected in PBS (137 mM NaCl, 2.57 mM KCl, 1.5 mM KH2PO4, 8 mM Na2HPO4) and pelleted by centrifugation. Cell pellets were resuspended in ice-cold membrane buffer (15 mM Tris, 0.3 mM EDTA, 2 mM MgCl2, pH 7.4 at 4 °C) and dounce-homogenized on ice by plunging the pestle 10 times with 1500 rpm. Cell homogenates were subsequently subjected to 2 freeze-thaw cycles using liquid nitrogen. Next, the cell homogenates were centrifuged at 40,000 g and pellets were resuspended in Tris-sucrose buffer (20 mM Tris, 250 mM sucrose, pH 7.4 at 4 °C). […]
Radioligand binding studies were performed as described earlier.[23] […] Filter-bound [^3H]VUF15485 was measured by adding 25 μL MicroScint-O per well to the dried GF/C-plate and radioactivity was quantified using the Wallac Microbeta counter (Perkin Elmer).
The sigmoidal concentration-dependent displacement of binding of the probes [^3H]VUF15485 and CXCL12-A647 by unlabeled ligands were analyzed using GraphPad Prism 8, by fitting a one-site binding model to the data, to determine the pIC50. Mean pIC50 values were determined by averaging fitted values from individual experiments. […] Similarly, sigmoidal, ligand-induced concentration-dependent activation or inhibition of the proximity between ACKR3 and the protein of interest was analyzed using GraphPad Prism 8, by fitting a 3-parameter concentration-response model to the data, to determine pEC50/pIC50 values. Mean pEC50 values and pIC50 values were determined by averaging fitted values from individual experiments. […]
The ACKR3 ligand VUF16840 was evaluated for its binding to hACKR3 in different competition binding assay formats (Fig. 1). […]

Assay [2] deals with T2, hCXCR4 (Homo sapiens, UniProt P61073).
T2 construct: The CXCR4-Rluc8 fusion protein corresponds to CXCR4 isoform b (NCBI: NM_003467.2); expressed in transfected cells; host or cells: HEK293T
T2 sequence (P61073 whole entry, the tested form may be a part, canonical isoform): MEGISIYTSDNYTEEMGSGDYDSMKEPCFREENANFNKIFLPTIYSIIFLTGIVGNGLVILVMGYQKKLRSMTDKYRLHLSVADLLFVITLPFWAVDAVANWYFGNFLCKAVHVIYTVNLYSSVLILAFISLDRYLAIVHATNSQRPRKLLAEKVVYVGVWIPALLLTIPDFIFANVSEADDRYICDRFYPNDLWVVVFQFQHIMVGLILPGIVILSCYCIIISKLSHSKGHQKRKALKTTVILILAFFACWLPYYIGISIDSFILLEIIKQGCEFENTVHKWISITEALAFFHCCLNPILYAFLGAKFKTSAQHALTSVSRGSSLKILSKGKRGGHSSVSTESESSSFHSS
In words: BRET β-arrestin2 recruitment to hCXCR4 in HEK293T cells. To be noted: in the presence or absence of 100 nM CXCL12. The class given is cell-based. The text has this:
The NLuc-ACKR3 plasmid was a kind gift from Prof Hill (Nottingham University, Nottingham, United Kingdom),[31] […] The mVenus-CAAX and the hACKR3-NLuc constructs have been described by Zarca et al.[23] The sequence of the used ACKR3 constructs corresponds to National Center for Biotechnology Information (NCBI) database entry NM_020311.3. Radioligand binding studies used a mammalian expression vector pcDEF3 encoding ACKR3, N-terminally fused to an HA-tag and C-terminally fused to a triple Alanine tag (NotI). This construct was the template for the C-terminal ACKR3 fusion with the luminescent Rluc8 protein (NCBI: EF446136.1). The CXCR4-Rluc8 fusion protein corresponds to CXCR4 isoform b (NCBI: NM_003467.2) fused at the C-terminus with a triple Alanine linker (NotI) before the Rluc8 protein.
For 1·10^6 HEK293T cells, a transfection mix consisting of 2 μg plasmid DNA, 12 μg linear PEI in a total volume of 200 μL 150 mM NaCl was made and thoroughly vortexed. The transfection mix was incubated for 15 minutes and consequently added to a cell suspension with a final concentration of 3·10^5 cells/mL. […]
Fig. 2 VUF16840 inhibits constitutive as well as agonist induced β-arrestin2 recruitment to ACKR3. […] Subsequently, β-arrestin2 recruitment to hACKR3 was detected by NanoBiT complementation. […]

Where [3] appears, read: read-out: IC50, displacement of [3H]VUF15485 binding from HA-hACKR3.

Like-named read-outs stand apart in the source and are kept apart here.

T1 sequence (P25106 whole entry): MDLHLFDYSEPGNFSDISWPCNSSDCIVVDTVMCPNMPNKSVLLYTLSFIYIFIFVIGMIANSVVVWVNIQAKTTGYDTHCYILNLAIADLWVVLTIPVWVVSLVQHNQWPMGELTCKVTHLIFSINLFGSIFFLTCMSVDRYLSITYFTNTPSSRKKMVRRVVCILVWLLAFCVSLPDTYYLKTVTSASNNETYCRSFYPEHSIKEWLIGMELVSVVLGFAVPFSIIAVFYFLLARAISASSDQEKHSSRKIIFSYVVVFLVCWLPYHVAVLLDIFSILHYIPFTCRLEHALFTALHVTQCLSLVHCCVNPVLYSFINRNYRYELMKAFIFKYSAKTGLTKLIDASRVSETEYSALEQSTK

In the case of `COc1cc(C(=O)N(CCC2CCCN2C)CC(C)=Cc2ccccc2F)cc(OC)c1OC` (stereo not shown) [VUF15485, reference compound], in assay [1] (setting [3]), the IC50 is 20 nM.
Consider `COc1ccccc1CCNC(=O)C1CN(C2CCCCC2)CCC1NC(=O)c1cc(-c2ccc(F)cc2F)on1` (stereo not shown) [VUF16840], for which the IC50 in assay [1] (mean ± SD, read-out: pIC50, displacement of [3H]VUF15485 binding from HA-hACKR3 (converted)) was 0.794 nM; in assay [1] (setting [3]) it was 0.7 nM. Further, the “effect on β-arrestin2 recruitment to CXCR4” value in assay [2] is “did not affect”.
